Test results from PubChem BioAssay (NCI).
“And” between values parts separate entries of the source, which are not always exact repeats. Equal values may be shown once.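 Where inhibition never reached the appropriate level, the endpoint shown equals the highest concentration tested. Otherwise, values were interpolated linearly from a five-concentration, 48-hour dose response in 96-well plates. TGI: concentration producing complete growth inhibition.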

How the values were obtained:
Assay in all cases: inhibition of tumour cell growth, NCI panel, 48 h
OVCAR-3 ovarian = system: OVCAR-3 ovarian
A498 renal = system: A498 renal
OVCAR-8 ovarian = system: OVCAR-8 ovarian
HOP-92 NSCLC = system: HOP-92 NSCLC
SF-295 CNS = system: SF-295 CNS
CAKI-1 renal = system: CAKI-1 renal
ACHN renal = system: ACHN renal
NCI-H522 lung = system: NCI-H522 lung
MCF7 breast = system: MCF7 breast
K-562 leukemia = system: K-562 leukemia

Row | Structure (SMILES) | TGI (OVCAR-3 ovarian) [µM] | TGI (A498 renal) [µM] | TGI (OVCAR-8 ovarian) [µM] | TGI (HOP-92 NSCLC) [µM] | TGI (SF-295 CNS) [µM] | TGI (CAKI-1 renal) | TGI (ACHN renal) [µM] | TGI (NCI-H522 lung) [µM] | TGI (MCF7 breast) [µM] | TGI (K-562 leukemia) [µM]
1 | CC(=O)C(C(C)=O)[C@@H]1OC(C)(C)O[C@@H]1[C@H]1COC(C)(C)O1 | > 100 | > 100 | > 100 | > 100 | > 100 | > 100 µM | > 100 | 81.2 | > 100 | > 100
2 | Cc1ccc(-c2cc[n+]3c(n2)oc2ccccc23)cc1 | 40.9 | 65.4 | 41.2 | 47.3 | > 100 | > 100 µM | 99.4 | 20 | > 100 | 22.5
3 | CC1SC2(CCCCC2)N(NC(=O)CSc2nc3ccc(Cl)cc3c(=O)n2-c2ccccc2)C1=O (stereo not drawn) | 32.8 | 81.2 | 59.1 | 52.5 | 36.8 | > 100 µM | 83.9 | 34.1 | 32.2 | 73.8
4 | Cc1ccc(N=Nc2c(O)ccc3cc(S(=O)(=O)O)ccc23)cc1 | > 100 | > 100 | > 100 | > 100 | > 100 | > 100 µM and 80.8 µM | > 100 | > 100 | > 100 | > 100
5 | S=c1nc(N/N=C/c2cccs2)c2cn[nH]c2[nH]1 | 34.1 | > 100 | > 100 | > 100 | 41.4 | 42.9 µM | > 100 | 76.8 | 28.3 | > 100
6 | CN(CCCNC(=O)c1nn(C)c2c1Cc1ccccc1-2)CCCNC(=O)c1nn(C)c2c1Cc1ccccc1-2 | 38 | 31.7 | 46 | 35 | 34.7 | 35.5 µM | 31 | 40.6 | 31.2 | 25.6
7 | O=C1CC(=O)NC(=NN2C(=O)CSC2C(=O)c2ccco2)N1 (stereo not drawn) | > 100 | > 100 | > 100 | > 100 | > 100 | > 100 µM | > 100 | > 100 | > 100 | > 100
8 | CN1CCc2c(sc3ncn(Nc4ccc(Cl)cc4)c(=N)c23)C1 | > 100 | > 100 | > 100 | > 100 | > 100 | > 100 µM | > 100 | > 100 | > 100 | > 100
9 | C=C(C)[C@H]1C2=CC(C)=C(O2)[C@@H](O)[C@H](C(=C)C)CCC2=C[C@H]1OC2=O | > 100 | > 100 | > 100 | > 100 | > 100 | > 100 µM | > 100 | > 100 | > 100 | > 100
10 | COC(=O)c1c(C)cccc1C1CN=NC12Cc1cc(C)cc(C)c1C2=O (stereo not drawn) | > 100 | 74.9 | > 100 | 64.2 | > 100 | > 100 µM | > 100 | 41.2 | 29.1 | > 100
11 | Cc1cc2n[n+]3[n-]cc(-c4ccccc4)n3c2cc1[N+](=O)[O-] | > 100 | > 100 |  | > 100 | > 100 | > 100 µM | > 100 | > 100 | > 100 | > 100
12 | O=C(CN1CCCCC1)Nc1ccc2c(c1)C1Oc3ccccc3CC1CO2 (stereo not drawn) | 64.9 | 62.8 | > 100 | 54.7 | 36.4 | > 100 µM |  | 36.3 | 44.1 | > 100
13 | C=CCOC(=O)N1c2ccc(O)cc2[C@@]23O[C@@]24[C@@H]1C#C/C=C\C#C[C@]3(O)C(OC)(OC)C[C@@H]4C |  | 67.6 | 85.5 | 77.9 | > 100 | > 100 µM | 72.3 | 74.6 | 98.2 | > 100
14 | COC(=O)CNC(=O)CCC(C)[C@H]1CCC2C3C(C[C@H](OC(C)=O)[C@@]21C)[C@@]1(C)CCC2(C[C@H]1C[C@H]3OC(C)=O)OOC1(CC[C@]3(C)C4C[C@H](OC(C)=O)[C@@]5(C)C(CC[C@@H]5C(C)CCC(=O)NCC(=O)OC)C4[C@H](OC(C)=O)C[C@@H]3C1)OO2 (stereo partly drawn) | 15.9 | 39.8 |  | 2.64 | 24.7 | 6.96 µM | 1.57 | 3.19 | > 50 | 4.63
15 | COC1=CC(=O)C=C(OC)C1=O | 32.2 | 3.39 | 32.1 | 7.89 | 34.6 | 96.6 µM |  | 34.4 | 42.7 | 18
16 | COc1ccc2c(c1)NC1(CCN(CCCC(=O)c3ccc(F)cc3)CC1)N=N2 | 53.5 | 76.7 |  | > 100 | 46.3 | 90.6 µM | > 100 | 33.9 | 40.5 | 41
17 | CNC(=O)SCC(NC(=O)CCC(N)C(=O)O)C(=O)NCC(=O)O (stereo not drawn) | > 100 | > 100 | > 100 | > 100 | > 100 | > 100 µM |  | > 100 | > 100 | > 100
